Experimental data as given in ChEMBL document CHEMBL1201862, “PubChem BioAssay data set” (2004).
Calls of active or inactive are those of the source.

Columns and labels:
CAAX prenyl protease 2 [1] = target: CAAX prenyl protease 2 (Saccharomyces cerevisiae S288c, UniProt Q03530); format: biochemical
CAAX prenyl protease 2 [2] = target: CAAX prenyl protease 2 (Homo sapiens, UniProt Q9Y256); experiment: inhibition of Ras-converting CAAX protease Rce1 – biochemical, yeast membranes, quenched-peptide fluorescence, cherry-pick, dose response (AID 588849)
Sequence of CAAX prenyl protease 2 (Homo sapiens, UniProt Q9Y256) (Q9Y256 whole entry): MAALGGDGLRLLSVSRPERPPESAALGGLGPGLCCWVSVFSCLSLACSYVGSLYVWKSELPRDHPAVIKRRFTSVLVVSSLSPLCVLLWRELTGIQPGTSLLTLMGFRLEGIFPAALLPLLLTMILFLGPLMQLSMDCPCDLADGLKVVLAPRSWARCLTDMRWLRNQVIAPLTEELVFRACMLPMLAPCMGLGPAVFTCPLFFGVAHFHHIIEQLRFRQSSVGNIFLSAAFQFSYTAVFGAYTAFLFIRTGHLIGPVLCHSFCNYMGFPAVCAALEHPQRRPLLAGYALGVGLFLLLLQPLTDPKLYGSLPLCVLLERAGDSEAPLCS

Trypsin = Trypsin (Sus scrofa, UniProt P00761); experiment: trypsin protease activity blockade – biochemical, quenched peptide fluorescence, cherry-pick, selectivity assay for Rce1 protease inhibitor project, dose response (AID 488789)
Sequence of Trypsin (P00761 whole entry): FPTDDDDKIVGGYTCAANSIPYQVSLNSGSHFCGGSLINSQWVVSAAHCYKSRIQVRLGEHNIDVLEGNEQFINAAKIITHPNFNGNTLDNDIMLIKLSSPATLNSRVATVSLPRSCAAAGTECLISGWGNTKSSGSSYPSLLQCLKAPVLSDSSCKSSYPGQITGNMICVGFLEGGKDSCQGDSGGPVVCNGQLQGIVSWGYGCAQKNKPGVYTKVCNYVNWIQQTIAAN

[3] = target: E3 ubiquitin-protein ligase Mdm2 (Homo sapiens, UniProt Q00987); experiment: MDM2-luc reporter signal enhancers, multi-concentration potency testing, MDM2 ubiquitin-protein ligase inhibitor program, whole-cell format, luminescence detection, 384-well microplate (AID 1394); format: functional;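 further: MDM2 E3 inhibitors raise luminescence so EC50 is for signal enhancement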
Sequence of E3 ubiquitin-protein ligase Mdm2 (Q00987 whole entry): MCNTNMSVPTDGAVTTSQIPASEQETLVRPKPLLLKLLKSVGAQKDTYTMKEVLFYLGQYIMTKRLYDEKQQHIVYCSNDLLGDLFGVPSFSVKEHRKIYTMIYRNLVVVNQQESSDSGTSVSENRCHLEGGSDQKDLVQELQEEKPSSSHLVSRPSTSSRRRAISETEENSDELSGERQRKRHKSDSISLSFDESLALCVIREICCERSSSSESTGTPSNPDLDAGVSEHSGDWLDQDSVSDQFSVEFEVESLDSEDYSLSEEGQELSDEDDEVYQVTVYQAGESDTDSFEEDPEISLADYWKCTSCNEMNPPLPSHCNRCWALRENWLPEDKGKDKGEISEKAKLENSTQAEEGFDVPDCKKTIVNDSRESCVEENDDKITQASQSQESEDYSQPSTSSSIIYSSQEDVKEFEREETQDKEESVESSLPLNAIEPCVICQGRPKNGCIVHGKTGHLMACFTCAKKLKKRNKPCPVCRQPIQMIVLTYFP

[4] = alpha-synuclein stem-loop luciferase translation blockers – H4 neuroglioma cells, luminescence, confirmation (AID 1988); format: functional, cell-based
[5] = target: T1, Kappa-type opioid receptor (Homo sapiens, UniProt P41145); format: functional
T1 sequence (P41145 whole entry): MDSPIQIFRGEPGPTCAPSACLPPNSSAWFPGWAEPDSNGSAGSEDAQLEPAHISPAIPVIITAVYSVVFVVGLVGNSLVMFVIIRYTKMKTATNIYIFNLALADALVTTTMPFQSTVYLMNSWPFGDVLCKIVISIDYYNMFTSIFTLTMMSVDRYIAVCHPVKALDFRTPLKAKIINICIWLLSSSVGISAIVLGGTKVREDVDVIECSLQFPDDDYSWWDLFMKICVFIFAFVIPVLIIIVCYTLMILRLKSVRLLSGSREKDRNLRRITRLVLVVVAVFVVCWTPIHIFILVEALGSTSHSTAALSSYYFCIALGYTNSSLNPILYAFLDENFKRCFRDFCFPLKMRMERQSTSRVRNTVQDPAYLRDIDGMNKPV

[6] = target: T2, Replicative DNA helicase DnaB (Mycobacterium tuberculosis, UniProt P9WMR3); experiment: DnaB intein splicing inhibitors, dose response, biochemical, cell-free fluorescence (AID 449749); format: functional
T2 sequence (P9WMR3 whole entry): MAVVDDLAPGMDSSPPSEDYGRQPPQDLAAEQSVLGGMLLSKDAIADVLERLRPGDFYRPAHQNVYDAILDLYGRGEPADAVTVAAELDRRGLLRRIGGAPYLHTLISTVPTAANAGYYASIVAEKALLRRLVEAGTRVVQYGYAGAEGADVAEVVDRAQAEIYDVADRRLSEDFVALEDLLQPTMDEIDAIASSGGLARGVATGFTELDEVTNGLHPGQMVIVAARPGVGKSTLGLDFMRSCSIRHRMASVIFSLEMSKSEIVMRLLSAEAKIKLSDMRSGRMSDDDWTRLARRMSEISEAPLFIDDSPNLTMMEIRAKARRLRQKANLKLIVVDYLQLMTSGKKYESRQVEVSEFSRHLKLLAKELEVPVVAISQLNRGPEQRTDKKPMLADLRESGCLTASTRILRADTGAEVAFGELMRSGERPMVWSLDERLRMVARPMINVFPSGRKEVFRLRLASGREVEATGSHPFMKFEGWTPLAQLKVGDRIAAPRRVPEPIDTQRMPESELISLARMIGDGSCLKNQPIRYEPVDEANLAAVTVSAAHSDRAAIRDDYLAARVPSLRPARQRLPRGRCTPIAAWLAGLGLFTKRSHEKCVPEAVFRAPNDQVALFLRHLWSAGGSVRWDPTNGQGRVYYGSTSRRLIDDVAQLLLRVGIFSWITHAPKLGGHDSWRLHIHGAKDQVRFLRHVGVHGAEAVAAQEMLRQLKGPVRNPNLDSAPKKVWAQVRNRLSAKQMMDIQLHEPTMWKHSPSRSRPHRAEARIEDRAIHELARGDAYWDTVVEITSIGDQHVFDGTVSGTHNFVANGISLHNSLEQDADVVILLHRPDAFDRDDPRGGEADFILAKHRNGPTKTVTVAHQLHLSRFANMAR

[7] = Luminescence Cell-Based Dose Response HTS to Identify Inhibitors of 5'UTR Stem-Loop Driven Prion Protein mRNA Translation in H4 Neuroglioblastoma Cells. [Related pubchem assays: 1827 (Project Summary), 1813 (Primary HTS)]; format: functional
Protein RecA = target: T3, Protein RecA (Mycobacterium tuberculosis, UniProt P9WHJ3); experiment: Fluorescence Cell-Free Homogeneous Dose Retest to Identify Inhibitors of RecA-Intein Splicing Activity. [Related pubchem assays (depositor defined):AID2097, AID2223, AID489010, AID492950]; format: functional
T3 sequence (P9WHJ3 whole entry): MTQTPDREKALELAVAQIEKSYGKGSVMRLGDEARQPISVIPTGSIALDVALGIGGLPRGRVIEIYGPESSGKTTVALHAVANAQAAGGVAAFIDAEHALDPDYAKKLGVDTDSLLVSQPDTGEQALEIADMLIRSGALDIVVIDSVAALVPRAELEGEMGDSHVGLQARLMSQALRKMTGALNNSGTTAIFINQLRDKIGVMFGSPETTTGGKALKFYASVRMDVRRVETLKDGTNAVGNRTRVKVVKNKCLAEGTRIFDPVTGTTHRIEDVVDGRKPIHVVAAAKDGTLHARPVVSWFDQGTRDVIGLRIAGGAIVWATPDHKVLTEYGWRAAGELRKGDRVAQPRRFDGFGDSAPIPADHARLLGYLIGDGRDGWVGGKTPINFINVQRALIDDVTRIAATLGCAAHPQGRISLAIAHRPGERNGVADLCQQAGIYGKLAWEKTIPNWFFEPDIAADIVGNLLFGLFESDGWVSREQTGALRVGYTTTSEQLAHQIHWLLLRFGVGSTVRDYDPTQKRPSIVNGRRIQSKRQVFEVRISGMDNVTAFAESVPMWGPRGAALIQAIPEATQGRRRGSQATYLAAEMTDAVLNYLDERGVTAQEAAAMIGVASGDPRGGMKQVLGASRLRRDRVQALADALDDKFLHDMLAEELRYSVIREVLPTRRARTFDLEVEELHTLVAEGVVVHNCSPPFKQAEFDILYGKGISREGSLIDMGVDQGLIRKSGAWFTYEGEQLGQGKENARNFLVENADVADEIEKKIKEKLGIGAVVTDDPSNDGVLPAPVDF

Beta-galactosidase = Beta-galactosidase (Escherichia coli, UniProt Q8VNN2); format: functional
Sequence of Beta-galactosidase (Q8VNN2 whole entry): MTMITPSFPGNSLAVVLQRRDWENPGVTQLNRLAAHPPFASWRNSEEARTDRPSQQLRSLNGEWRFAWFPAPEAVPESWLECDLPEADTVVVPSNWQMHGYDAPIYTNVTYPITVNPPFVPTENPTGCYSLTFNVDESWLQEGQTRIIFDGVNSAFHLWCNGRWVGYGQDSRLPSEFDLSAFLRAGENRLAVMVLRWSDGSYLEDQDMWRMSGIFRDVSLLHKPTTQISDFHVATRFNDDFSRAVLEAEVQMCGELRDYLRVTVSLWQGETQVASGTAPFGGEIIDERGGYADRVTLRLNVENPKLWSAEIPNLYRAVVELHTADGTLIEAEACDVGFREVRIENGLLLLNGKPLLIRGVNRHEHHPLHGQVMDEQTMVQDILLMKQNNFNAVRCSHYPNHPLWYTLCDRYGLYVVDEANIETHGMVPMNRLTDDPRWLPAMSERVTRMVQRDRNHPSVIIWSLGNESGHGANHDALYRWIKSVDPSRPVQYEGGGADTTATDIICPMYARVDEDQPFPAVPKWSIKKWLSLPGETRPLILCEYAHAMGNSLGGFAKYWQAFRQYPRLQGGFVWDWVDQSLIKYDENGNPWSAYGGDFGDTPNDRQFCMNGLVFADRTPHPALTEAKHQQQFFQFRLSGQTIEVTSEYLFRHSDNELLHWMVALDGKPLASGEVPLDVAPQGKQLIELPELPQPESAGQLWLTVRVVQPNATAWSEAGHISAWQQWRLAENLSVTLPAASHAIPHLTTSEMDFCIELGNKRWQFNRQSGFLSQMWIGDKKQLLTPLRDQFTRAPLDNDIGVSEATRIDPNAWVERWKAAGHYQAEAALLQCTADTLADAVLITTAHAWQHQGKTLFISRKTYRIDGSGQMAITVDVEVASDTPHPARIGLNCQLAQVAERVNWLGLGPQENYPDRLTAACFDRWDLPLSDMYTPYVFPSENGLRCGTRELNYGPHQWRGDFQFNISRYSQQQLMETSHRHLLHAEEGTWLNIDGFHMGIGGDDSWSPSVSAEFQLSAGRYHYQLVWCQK

[8] = target: T1, Kappa-type opioid receptor; format: functional; remark: listed apart in the source
[9] = luciferase reporter signal suppression in cells – H4 neuroglioma cells, luminescence, dose response (AID 1990); format: functional, cell-based
[10] = target: G-protein coupled receptor 55 (Homo sapiens, UniProt Q9Y2T6); experiment: inhibition of LPI-stimulated GPR55 beta-arrestin translocation – imaging, U2OS, beta-arrestin-GFP, LPI agonist, primary screen (AID 2013); format: functional;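 further: antagonist potency measured as reduced agonist-driven arrestin aggregation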
Sequence of G-protein coupled receptor 55 (Q9Y2T6 whole entry): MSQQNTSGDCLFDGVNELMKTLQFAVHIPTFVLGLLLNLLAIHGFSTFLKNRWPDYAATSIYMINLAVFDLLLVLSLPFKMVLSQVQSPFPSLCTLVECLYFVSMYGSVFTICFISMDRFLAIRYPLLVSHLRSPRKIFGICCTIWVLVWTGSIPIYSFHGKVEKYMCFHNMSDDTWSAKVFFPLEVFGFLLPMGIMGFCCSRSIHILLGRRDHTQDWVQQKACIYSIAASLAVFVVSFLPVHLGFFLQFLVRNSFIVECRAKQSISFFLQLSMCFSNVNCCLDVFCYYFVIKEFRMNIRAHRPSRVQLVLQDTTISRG

Mu-type opioid receptor [11] = target: T4, Mu-type opioid receptor (Homo sapiens, UniProt P35372); experiment: HTS Image-Based Screen for Agonists of the MOR Receptor. [Related pubchem assays (depositor defined):AID1777, AID1785, AID1786, AID2133]; format: functional
T4 sequence (P35372 whole entry): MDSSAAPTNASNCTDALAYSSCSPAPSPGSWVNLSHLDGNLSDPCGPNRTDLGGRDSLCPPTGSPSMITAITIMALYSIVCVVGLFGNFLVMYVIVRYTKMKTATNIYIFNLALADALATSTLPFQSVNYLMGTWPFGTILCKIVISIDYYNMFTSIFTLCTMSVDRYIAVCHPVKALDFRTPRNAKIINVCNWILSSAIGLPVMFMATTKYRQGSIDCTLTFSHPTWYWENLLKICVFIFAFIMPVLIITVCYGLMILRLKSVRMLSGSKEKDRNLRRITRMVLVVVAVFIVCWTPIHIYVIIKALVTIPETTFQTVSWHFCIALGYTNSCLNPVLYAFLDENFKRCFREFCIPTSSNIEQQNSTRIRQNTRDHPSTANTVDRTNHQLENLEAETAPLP

[12] = target: G-protein coupled receptor 35 (Homo sapiens, UniProt Q9HC97); experiment: inhibition of zaprinast-stimulated GPR35 beta-arrestin translocation – imaging, U2OS, beta-arrestin-GFP, zaprinast agonist, primary screen (AID 2058); format: functional;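 further: antagonist potency meaning inhibition of agonist-induced arrestin redistribution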
Sequence of G-protein coupled receptor 35 (Q9HC97 whole entry): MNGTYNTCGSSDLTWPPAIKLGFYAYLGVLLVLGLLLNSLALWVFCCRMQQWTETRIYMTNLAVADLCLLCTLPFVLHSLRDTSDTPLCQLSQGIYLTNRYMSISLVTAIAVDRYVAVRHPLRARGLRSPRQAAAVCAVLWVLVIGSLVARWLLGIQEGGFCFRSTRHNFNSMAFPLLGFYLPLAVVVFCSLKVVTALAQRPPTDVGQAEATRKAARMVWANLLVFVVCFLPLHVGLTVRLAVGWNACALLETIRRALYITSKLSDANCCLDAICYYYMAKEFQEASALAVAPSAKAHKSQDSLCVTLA

[13] = target: T5, Delta-type opioid receptor (Homo sapiens, UniProt P41143); experiment: HTS Image-Based Screen for Agonists of the DOR Receptor. [Related pubchem assays (depositor defined):AID1777, AID1786, AID2133]; format: functional
T5 sequence (P41143 whole entry): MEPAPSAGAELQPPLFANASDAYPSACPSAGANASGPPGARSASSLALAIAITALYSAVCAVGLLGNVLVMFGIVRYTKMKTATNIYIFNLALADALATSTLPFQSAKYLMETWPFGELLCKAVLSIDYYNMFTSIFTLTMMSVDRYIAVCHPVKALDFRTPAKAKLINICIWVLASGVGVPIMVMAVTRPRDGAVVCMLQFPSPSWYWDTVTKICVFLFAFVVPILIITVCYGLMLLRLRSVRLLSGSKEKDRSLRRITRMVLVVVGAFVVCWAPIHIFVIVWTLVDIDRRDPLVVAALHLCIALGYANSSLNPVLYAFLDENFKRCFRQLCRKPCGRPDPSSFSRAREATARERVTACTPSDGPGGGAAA

[14] = target: T5, Delta-type opioid receptor; experiment: HTS Image-Based Screen for Antagonists of the DOR Receptor. [Related pubchem assays (depositor defined):AID1777, AID1785, AID1786, AID2133]; format: functional
[15] = target: T6, Zinc finger protein mex-5 (Caenorhabditis elegans, UniProt Q9XUB2); experiment: potency of MEX-5 RNA-binding blockers – biochemical, C. elegans, fluorescence polarization, dose response (AID 1960)
T6 sequence (Q9XUB2 whole entry): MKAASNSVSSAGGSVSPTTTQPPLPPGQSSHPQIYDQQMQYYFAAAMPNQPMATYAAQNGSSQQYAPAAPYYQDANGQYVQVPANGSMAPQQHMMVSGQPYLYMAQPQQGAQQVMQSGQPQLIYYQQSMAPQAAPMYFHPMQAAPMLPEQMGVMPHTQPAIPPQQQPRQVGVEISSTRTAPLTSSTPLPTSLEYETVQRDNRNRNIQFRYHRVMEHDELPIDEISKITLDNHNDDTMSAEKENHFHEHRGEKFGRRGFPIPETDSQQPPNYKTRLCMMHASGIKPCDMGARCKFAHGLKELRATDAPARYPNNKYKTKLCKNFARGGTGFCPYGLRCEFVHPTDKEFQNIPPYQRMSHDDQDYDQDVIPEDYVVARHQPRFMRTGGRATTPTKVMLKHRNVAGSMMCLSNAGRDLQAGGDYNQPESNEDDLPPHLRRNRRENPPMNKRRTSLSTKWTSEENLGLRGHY

[16] = target: Alkaline phosphatase, placental type (Homo sapiens, UniProt P05187); experiment: human placental alkaline phosphatase inhibition – biochemical, luminescence, confirmation (AID 1512); format: functional
Sequence of Alkaline phosphatase, placental type (P05187 whole entry, the tested form may be a part): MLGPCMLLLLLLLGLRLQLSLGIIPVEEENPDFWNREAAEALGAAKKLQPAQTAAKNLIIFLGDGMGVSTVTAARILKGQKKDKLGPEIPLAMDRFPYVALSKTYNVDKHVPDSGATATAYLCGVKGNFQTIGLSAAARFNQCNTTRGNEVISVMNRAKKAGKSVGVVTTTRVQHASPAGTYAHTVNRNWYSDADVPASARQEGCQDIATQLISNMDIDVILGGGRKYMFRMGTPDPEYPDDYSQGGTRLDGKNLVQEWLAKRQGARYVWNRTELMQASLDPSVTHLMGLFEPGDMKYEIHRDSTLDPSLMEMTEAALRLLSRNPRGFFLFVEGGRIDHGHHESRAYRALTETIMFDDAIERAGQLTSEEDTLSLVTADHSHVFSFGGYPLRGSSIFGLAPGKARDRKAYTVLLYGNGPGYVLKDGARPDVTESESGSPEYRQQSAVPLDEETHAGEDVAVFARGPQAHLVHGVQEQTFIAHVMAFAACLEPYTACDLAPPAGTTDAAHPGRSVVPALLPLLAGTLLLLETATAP

[17] = target: T7, RNA-binding protein pos-1 (Caenorhabditis elegans, UniProt G5EF15); experiment: disruptors of C. elegans POS-1 RNA interaction – biochemical, fluorescence polarization, dose response (AID 1964);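 further: purified POS-1 fused to maltose binding protein made in E. coli; potency of compounds blocking POS-1 binding to fluorescent RNA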
T7 sequence (G5EF15 whole entry): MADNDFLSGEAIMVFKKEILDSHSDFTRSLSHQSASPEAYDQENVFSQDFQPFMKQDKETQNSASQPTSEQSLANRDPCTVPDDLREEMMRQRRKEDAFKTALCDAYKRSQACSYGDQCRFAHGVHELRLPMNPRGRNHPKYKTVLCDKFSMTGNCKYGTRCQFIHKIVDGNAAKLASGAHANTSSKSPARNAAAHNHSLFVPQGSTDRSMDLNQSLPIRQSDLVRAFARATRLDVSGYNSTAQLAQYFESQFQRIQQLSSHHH

[18] = target: T1, Kappa-type opioid receptor; experiment: SAR analysis of Antagonists of the Kappa Opioid Receptor (KOR) using an Image-Based Assay - Set 3. [Related pubchem assays (depositor defined):AID1777, AID1785]; format: functional
Mu-type opioid receptor [19] = target: T4, Mu-type opioid receptor; experiment: SAR Analysis of Antagonists of the MOR Receptor using an Image-Based Assay - Set 3. [Related pubchem assays (depositor defined):AID1777, AID1785, AID1786, AID1966, AID2133, AID2136, AID2284, AID2285, AID2420]; format: functional
[20] = target: T1, Kappa-type opioid receptor; experiment: SAR analysis of small molecule antagonists of the kappa opioid receptor via a luminescent beta-arrestin assay - Set 3. [Related pubchem assays (depositor defined):AID1777, AID1778, AID1785, AID1786, AID1966, AID2133, AID2136, AID2285, AID2495]; format: functional
[21] = target: T5, Delta-type opioid receptor; experiment: SAR Analysis of Antagonists of the DOR Receptor using an Image-Based Assay - Set 3. [Related pubchem assays (depositor defined):AID1777, AID1785]; format: functional

Sequence of CAAX prenyl protease 2 (Saccharomyces cerevisiae S288c, UniProt Q03530) (Q03530 whole entry): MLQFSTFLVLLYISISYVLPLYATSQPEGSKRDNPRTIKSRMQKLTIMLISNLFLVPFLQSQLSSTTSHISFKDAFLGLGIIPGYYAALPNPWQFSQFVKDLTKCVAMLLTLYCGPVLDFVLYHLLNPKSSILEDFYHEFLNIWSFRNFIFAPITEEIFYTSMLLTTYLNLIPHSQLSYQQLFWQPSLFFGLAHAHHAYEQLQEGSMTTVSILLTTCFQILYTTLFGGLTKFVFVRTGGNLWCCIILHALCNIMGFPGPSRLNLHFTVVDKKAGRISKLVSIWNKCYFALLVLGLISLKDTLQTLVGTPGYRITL

Structure (SMILES): COc1ccc(-c2cc3ccc(OCc4nn[nH]n4)cc3oc2=O)cc1OC
- AC50 (CAAX prenyl protease 2 [1]): 20.3 µM (active)
- AC50 (CAAX prenyl protease 2 [2]): 1.71 µM (active)
- AC50 (Trypsin): 2.34 µM (active)

Structure (SMILES): CC(NC(=O)Cn1ncc(Cl)c(Cl)c1=O)C12CC3CC(CC(C3)C1)C2 (centres undefined)
- EC50 [3]: 1.55 µM (active)
- EC50 [4]: > 120 µM (not active)
- IC50 [5]: 2630 nM
- AC50 [6]: 441 nM (active)
- EC50 [7]: 6.41 µM (active)
- EC50 (Protein RecA): 47 nM (active)
- EC50 (Beta-galactosidase): > 31.5 µM (inactive)
- IC50 [8]: 2.14 µM (active)
- EC50 [9]: 8.55 µM (active)
- IC50 [10]: 3.92 µM (active)
- EC50 (Mu-type opioid receptor [11]): > 32 µM (inactive)
- IC50 [12]: 1.07 µM (active)
- EC50 [13]: > 32 µM (inactive)
- IC50 [14]: 6.48 µM (active)

Structure (SMILES): COCCNC(=O)CCC(=O)NNc1nc2ccccc2c2nc(C)nn12
- EC50 [15]: 1.21 µM (active)
- IC50 [16]: > 100 µM (inactive)
- EC50 [17]: 118 µM (active)

Structure (SMILES): CCc1ccc(S(=O)(=O)NCc2ccc(C(=O)NCCN(Cc3ccccc3)Cc3ccccc3)cc2)cc1
- IC50 [18]: > 32 µM (inactive)
- IC50 (Mu-type opioid receptor [19]): > 32 µM (inactive)
- IC50 [20]: > 20 µM (inactive)
- IC50 [21]: > 32 µM (inactive)
